# Data as given in ChEMBL document CHEMBL1909046, “DrugMatrix in vitro pharmacology data”.
# Test system: not listed separately
# Experiment: DRUGMATRIX: Leukotriene, BLT (LTB4) radioligand binding (ligand: [3H]LTB4)
# Format: cell membranes, Membrane
# Details: u-937; Not Active = under 50% inhibition at 10 µM
SMILES,IC50,Ki
O=C1CN=C(c2ccccc2)c2cc([N+](=O)[O-])ccc2N1 [NITRAZEPAM],Not Active,Not Active
CCC1(c2ccccc2)C(=O)NCNC1=O [PRIMIDONE],Not Active,Not Active
CC=CC(=O)N(CC)c1ccccc1C,Not Active,Not Active

# Biological target: T1, Caspase-1 (Homo sapiens, UniProt P29466);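 further: Caspase-1 enzyme inhibition assay with a peptide substrate; in other assays of this panel Not Active means under 50% inhibition at 10 µM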
# T1 sequence (P29466 whole entry): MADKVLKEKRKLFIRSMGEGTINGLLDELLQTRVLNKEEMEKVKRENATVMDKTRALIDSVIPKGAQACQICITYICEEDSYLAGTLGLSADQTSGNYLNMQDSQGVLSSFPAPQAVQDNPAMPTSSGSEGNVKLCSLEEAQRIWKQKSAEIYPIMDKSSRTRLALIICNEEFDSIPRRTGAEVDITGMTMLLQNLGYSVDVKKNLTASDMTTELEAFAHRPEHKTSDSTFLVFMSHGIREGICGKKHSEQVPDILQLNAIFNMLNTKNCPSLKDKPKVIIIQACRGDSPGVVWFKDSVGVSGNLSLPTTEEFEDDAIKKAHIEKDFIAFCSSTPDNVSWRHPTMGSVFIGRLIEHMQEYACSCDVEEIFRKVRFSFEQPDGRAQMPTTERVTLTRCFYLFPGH
# Experiment: not given
# Design: species or system Escherichia coli
# Details: not given
row,SMILES,IC50
1,O=C1CN=C(c2ccccc2)c2cc([N+](=O)[O-])ccc2N1 [NITRAZEPAM],Not Active
2,CCC1(c2ccccc2)C(=O)NCNC1=O [PRIMIDONE],Not Active
3,CC=CC(=O)N(CC)c1ccccc1C,Not Active

# Biological target: T2, Cathepsin G (Homo sapiens, UniProt P08311);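 further: inhibition of Cathepsin G enzyme activity, tested on an AMC-conjugated peptide substrate; in other assays of this panel Not Active means under 50% inhibition at 10 µM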
# T2 sequence (P08311 whole entry): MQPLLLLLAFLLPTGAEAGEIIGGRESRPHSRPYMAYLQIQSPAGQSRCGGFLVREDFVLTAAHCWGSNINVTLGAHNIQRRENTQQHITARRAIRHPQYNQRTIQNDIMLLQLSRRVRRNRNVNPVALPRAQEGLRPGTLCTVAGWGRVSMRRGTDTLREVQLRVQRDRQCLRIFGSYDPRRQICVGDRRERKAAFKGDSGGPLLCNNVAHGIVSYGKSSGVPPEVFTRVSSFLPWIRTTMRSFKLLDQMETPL
# Experiment: not given
# Format: tissue-based
# Details: neutrophil
row,SMILES,IC50
1,O=C1CN=C(c2ccccc2)c2cc([N+](=O)[O-])ccc2N1 [NITRAZEPAM],Not Active
2,CCC1(c2ccccc2)C(=O)NCNC1=O [PRIMIDONE],Not Active
3,CC=CC(=O)N(CC)c1ccccc1C,Not Active

# Biological target: T3, D(4) dopamine receptor (Homo sapiens, UniProt P21917)
# T3 sequence (P21917 whole entry): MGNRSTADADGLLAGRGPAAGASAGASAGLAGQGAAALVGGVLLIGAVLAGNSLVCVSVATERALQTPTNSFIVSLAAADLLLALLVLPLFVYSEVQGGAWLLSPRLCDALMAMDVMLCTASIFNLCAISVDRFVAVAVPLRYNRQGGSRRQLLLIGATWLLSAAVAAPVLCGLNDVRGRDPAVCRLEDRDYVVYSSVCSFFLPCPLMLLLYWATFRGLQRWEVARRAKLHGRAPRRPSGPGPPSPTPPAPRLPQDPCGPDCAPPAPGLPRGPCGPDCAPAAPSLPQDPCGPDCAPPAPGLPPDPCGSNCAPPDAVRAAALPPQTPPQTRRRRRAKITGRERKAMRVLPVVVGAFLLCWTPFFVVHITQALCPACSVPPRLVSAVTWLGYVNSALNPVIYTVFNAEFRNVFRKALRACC
# Experiment: DRUGMATRIX: Dopamine D4.2 radioligand binding (ligand: [3H] Spiperone)
# Format: cell membranes, CHO-K1, Membrane
# Details: cho-k1; Not Active = under 50% inhibition at 10 µM
row,SMILES,IC50
1,O=C1CN=C(c2ccccc2)c2cc([N+](=O)[O-])ccc2N1 [NITRAZEPAM],Not Active
2,CCC1(c2ccccc2)C(=O)NCNC1=O [PRIMIDONE],Not Active
3,CC=CC(=O)N(CC)c1ccccc1C,Not Active

# Test system: not listed separately
# Experiment: DRUGMATRIX: beta-Lactamase enzyme inhibition (substrate: Nitrocefin)
# Design: species or system Bacillus cereus
# Details: Not Active = under 50% inhibition at 10 µM
SMILES,IC50,Ki
O=C1CN=C(c2ccccc2)c2cc([N+](=O)[O-])ccc2N1 [NITRAZEPAM],Not Active,Not Active
CCC1(c2ccccc2)C(=O)NCNC1=O [PRIMIDONE],Not Active,Not Active
CC=CC(=O)N(CC)c1ccccc1C,Not Active,Not Active

# Test system: not listed separately
# Experiment: DRUGMATRIX: Purinergic P2X radioligand binding (ligand: [3H] alpha, beta-Methylene-ATP)
# Format: cell membranes, Oryctolagus cuniculus, New Zealand albino, Urinary bladder, Membrane
# Details: Not Active = under 50% inhibition at 10 µM
SMILES,IC50,Ki
O=C1CN=C(c2ccccc2)c2cc([N+](=O)[O-])ccc2N1 [NITRAZEPAM],Not Active,Not Active
CCC1(c2ccccc2)C(=O)NCNC1=O [PRIMIDONE],Not Active,Not Active
CC=CC(=O)N(CC)c1ccccc1C,Not Active,Not Active

# Biological target: Beta-1 adrenergic receptor (Homo sapiens, UniProt P08588)
# Sequence (P08588 whole entry): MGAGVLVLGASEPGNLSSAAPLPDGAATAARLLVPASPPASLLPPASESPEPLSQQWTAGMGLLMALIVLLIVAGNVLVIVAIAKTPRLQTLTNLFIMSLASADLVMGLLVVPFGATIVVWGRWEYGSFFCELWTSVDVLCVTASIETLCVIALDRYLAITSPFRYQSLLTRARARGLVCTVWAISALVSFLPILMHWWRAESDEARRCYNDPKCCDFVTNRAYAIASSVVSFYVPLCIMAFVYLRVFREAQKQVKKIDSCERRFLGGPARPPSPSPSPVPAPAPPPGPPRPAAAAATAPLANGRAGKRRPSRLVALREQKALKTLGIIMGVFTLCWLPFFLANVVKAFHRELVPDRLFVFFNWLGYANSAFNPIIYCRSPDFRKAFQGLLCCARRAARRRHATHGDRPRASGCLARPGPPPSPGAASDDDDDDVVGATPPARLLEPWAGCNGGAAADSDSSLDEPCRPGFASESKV
# Experiment: DRUGMATRIX: Adrenergic beta1 radioligand binding (ligand: [125I] Cyanopindolol)
# Format: cell membranes, CHO-K1, Membrane
# Details: cho-k1; Not Active = under 50% inhibition at 10 µM
row,SMILES,IC50
1,O=C1CN=C(c2ccccc2)c2cc([N+](=O)[O-])ccc2N1 [NITRAZEPAM],Not Active
2,CCC1(c2ccccc2)C(=O)NCNC1=O [PRIMIDONE],Not Active
3,CC=CC(=O)N(CC)c1ccccc1C,Not Active

# Test system: not listed separately
# Experiment: DRUGMATRIX: Sigma2 radioligand binding (ligand: [3H] Ifenprodil)
# Format: cell membranes, Rattus norvegicus, Wistar, Brain, Membrane
# Details: Not Active = under 50% inhibition at 10 µM
SMILES,IC50,Ki
O=C1CN=C(c2ccccc2)c2cc([N+](=O)[O-])ccc2N1 [NITRAZEPAM],Not Active,Not Active
CCC1(c2ccccc2)C(=O)NCNC1=O [PRIMIDONE],Not Active,Not Active
CC=CC(=O)N(CC)c1ccccc1C,Not Active,Not Active

# Biological target: Mu-type opioid receptor (Homo sapiens, UniProt P35372)
# Sequence (P35372 whole entry): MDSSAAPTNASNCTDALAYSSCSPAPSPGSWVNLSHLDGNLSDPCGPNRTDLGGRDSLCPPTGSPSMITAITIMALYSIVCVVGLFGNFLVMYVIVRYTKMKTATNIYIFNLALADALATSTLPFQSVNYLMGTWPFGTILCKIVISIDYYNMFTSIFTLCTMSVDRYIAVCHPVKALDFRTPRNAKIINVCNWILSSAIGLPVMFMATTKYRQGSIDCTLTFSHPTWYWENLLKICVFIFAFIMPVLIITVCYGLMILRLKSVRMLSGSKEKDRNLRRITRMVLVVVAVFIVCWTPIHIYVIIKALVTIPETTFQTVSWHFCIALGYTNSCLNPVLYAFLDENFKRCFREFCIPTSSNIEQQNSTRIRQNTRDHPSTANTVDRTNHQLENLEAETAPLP
# Experiment: DRUGMATRIX: Opiate mu (OP3, MOP) radioligand binding (ligand: [3H] Diprenorphine)
# Format: cell membranes, CHO-K1, Membrane
# Details: cho-k1; Not Active = under 50% inhibition at 10 µM
row,SMILES,IC50
1,O=C1CN=C(c2ccccc2)c2cc([N+](=O)[O-])ccc2N1 [NITRAZEPAM],Not Active
2,CCC1(c2ccccc2)C(=O)NCNC1=O [PRIMIDONE],Not Active
3,CC=CC(=O)N(CC)c1ccccc1C,Not Active

# Biological target: T4, 5-hydroxytryptamine receptor 2C (Homo sapiens, UniProt P28335)
# T4 sequence (P28335 whole entry): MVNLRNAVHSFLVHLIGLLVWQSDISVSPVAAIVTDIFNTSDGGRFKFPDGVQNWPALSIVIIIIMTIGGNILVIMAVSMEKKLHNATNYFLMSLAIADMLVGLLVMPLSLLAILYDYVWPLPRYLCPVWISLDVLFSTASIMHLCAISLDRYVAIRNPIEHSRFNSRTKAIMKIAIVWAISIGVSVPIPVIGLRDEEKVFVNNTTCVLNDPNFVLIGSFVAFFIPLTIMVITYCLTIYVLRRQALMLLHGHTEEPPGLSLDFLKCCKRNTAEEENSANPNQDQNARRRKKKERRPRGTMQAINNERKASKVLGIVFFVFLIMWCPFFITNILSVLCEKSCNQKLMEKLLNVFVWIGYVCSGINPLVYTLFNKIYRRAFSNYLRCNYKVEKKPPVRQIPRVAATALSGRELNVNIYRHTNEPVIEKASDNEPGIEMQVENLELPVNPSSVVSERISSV
# Experiment: DRUGMATRIX: Serotonin (5-Hydroxytryptamine) 5-HT2C radioligand binding (ligand: [3H] Mesulergine)
# Format: cell membranes, CHO-K1, Membrane
# Details: cho-k1; Not Active = under 50% inhibition at 10 µM
row,SMILES,IC50
1,O=C1CN=C(c2ccccc2)c2cc([N+](=O)[O-])ccc2N1 [NITRAZEPAM],Not Active
2,CCC1(c2ccccc2)C(=O)NCNC1=O [PRIMIDONE],Not Active
3,CC=CC(=O)N(CC)c1ccccc1C,Not Active

# Biological target: Epidermal growth factor receptor (Homo sapiens, UniProt P00533)
# Sequence (P00533 whole entry): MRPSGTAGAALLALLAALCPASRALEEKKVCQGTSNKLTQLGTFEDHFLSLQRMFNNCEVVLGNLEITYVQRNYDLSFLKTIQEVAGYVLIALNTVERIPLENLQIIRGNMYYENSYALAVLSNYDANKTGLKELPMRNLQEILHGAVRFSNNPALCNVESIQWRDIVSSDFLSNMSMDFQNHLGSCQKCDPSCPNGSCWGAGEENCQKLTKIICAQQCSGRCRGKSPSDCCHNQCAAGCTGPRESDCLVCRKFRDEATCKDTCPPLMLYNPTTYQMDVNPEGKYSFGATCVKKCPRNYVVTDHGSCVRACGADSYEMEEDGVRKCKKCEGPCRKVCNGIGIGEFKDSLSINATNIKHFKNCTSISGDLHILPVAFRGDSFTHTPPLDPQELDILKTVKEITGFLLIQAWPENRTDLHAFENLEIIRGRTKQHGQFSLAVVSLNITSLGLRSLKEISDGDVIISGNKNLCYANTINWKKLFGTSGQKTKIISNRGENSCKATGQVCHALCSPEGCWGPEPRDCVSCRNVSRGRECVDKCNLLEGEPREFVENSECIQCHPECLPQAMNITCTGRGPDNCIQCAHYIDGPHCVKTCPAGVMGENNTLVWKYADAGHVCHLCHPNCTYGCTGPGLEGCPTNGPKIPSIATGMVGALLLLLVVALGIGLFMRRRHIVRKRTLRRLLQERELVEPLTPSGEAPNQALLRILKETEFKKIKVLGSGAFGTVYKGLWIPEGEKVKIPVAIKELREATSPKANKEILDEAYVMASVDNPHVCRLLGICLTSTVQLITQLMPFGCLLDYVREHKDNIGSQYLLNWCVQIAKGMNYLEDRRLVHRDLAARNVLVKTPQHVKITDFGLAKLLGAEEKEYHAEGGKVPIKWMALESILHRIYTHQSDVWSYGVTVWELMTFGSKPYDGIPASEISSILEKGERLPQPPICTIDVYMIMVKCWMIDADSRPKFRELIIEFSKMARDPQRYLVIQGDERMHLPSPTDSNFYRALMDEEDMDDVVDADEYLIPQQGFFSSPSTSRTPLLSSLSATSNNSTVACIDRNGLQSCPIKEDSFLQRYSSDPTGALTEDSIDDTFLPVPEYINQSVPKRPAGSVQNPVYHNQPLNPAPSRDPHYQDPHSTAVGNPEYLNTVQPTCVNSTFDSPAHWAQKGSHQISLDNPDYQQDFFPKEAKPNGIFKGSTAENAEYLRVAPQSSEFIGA
# Experiment: DRUGMATRIX: Protein Tyrosine Kinase, EGF Receptor enzyme inhibition (substrate: Poly(Glu:Tyr))
# Format: cell-based, Insect cells
# Details: insect cells; Not Active = under 50% inhibition at 10 µM
row,SMILES,IC50
1,O=C1CN=C(c2ccccc2)c2cc([N+](=O)[O-])ccc2N1 [NITRAZEPAM],Not Active
2,CCC1(c2ccccc2)C(=O)NCNC1=O [PRIMIDONE],Not Active
3,CC=CC(=O)N(CC)c1ccccc1C,Not Active

# Biological target: Melanocortin receptor 4 (Homo sapiens, UniProt P32245); further: in other assays of this panel Not Active means under 50% inhibition at 10 µM
# Sequence (P32245 whole entry): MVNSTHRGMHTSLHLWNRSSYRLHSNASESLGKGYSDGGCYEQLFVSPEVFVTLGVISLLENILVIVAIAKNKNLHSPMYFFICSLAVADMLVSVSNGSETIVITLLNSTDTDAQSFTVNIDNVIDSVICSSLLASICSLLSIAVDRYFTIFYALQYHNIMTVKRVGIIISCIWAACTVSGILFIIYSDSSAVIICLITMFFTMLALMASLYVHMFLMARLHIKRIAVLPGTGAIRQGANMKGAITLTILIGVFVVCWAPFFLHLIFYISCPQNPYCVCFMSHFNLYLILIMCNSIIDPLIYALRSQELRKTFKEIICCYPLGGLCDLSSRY
# Experiment: not given
# Format: cell membranes, Membrane
# Details: hek293
row,SMILES,IC50
1,O=C1CN=C(c2ccccc2)c2cc([N+](=O)[O-])ccc2N1 [NITRAZEPAM],Not Active
2,CCC1(c2ccccc2)C(=O)NCNC1=O [PRIMIDONE],Not Active
3,CC=CC(=O)N(CC)c1ccccc1C,Not Active

# Biological target: Tyrosine-protein kinase Fyn (Homo sapiens, UniProt P06241);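 further: enzymatic inhibition of Fyn kinase activity measured with Poly(Glu:Tyr) as the phosphorylation substrate; in other assays of this panel Not Active means under 50% inhibition at 10 µM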
# Sequence (P06241 whole entry): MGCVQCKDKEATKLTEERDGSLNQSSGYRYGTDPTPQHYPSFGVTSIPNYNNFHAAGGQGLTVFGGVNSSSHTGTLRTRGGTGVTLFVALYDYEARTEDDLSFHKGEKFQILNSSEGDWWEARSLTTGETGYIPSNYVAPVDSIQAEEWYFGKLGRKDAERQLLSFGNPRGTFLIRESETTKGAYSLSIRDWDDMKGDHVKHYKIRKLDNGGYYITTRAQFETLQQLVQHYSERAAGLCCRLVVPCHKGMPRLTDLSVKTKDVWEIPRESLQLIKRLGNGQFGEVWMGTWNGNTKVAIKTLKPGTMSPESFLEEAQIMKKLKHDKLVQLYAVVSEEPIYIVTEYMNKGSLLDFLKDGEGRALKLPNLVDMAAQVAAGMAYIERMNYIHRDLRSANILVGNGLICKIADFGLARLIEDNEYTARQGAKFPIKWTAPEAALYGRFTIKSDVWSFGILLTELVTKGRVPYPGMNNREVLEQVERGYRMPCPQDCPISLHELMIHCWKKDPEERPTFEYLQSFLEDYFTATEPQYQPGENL
# Experiment: biochemical
# Format: cell-based, Insect cells
# Details: insect cells
row,SMILES,IC50
1,O=C1CN=C(c2ccccc2)c2cc([N+](=O)[O-])ccc2N1 [NITRAZEPAM],Not Active
2,CCC1(c2ccccc2)C(=O)NCNC1=O [PRIMIDONE],Not Active
3,CC=CC(=O)N(CC)c1ccccc1C,Not Active

# Biological target: Melanocortin receptor 5 (Homo sapiens, UniProt P33032); further: in other assays of this panel Not Active means under 50% inhibition at 10 µM
# Sequence (P33032 whole entry): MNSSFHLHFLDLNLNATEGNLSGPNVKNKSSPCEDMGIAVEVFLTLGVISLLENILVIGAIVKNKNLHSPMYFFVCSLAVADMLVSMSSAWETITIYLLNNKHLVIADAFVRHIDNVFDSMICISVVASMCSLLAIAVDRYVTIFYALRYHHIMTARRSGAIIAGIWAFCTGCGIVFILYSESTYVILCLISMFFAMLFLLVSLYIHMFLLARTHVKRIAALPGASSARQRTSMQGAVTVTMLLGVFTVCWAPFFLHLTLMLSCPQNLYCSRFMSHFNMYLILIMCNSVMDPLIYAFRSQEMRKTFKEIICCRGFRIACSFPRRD
# Experiment: not given
# Format: cell membranes, HEK293, Membrane
# Details: hek293
row,SMILES,IC50
1,O=C1CN=C(c2ccccc2)c2cc([N+](=O)[O-])ccc2N1 [NITRAZEPAM],Not Active
2,CCC1(c2ccccc2)C(=O)NCNC1=O [PRIMIDONE],Not Active
3,CC=CC(=O)N(CC)c1ccccc1C,Not Active

# Biological target: T5, Cysteinyl leukotriene receptor 1 (Homo sapiens, UniProt Q9Y271); further: in other assays of this panel Not Active means under 50% inhibition at 10 µM
# T5 sequence (Q9Y271 whole entry): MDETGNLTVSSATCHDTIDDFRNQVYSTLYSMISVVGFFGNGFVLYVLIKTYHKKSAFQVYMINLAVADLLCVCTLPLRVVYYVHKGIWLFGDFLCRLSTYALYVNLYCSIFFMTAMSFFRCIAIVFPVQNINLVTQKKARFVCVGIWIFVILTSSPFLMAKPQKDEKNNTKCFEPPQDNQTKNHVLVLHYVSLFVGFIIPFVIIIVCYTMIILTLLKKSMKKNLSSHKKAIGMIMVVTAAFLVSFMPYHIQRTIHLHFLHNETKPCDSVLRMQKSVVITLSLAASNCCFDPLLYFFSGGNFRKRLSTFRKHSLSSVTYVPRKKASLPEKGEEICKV
# Experiment: not given
# Format: cell membranes, CHO-K1, Membrane
# Details: cho-k1
row,SMILES,IC50
1,O=C1CN=C(c2ccccc2)c2cc([N+](=O)[O-])ccc2N1 [NITRAZEPAM],Not Active
2,CCC1(c2ccccc2)C(=O)NCNC1=O [PRIMIDONE],Not Active
3,CC=CC(=O)N(CC)c1ccccc1C,Not Active

# Biological target: 5-hydroxytryptamine receptor 1B (Rattus norvegicus, UniProt P28564); further: in other assays of this panel Not Active means under 50% inhibition at 10 µM
# Sequence (P28564 whole entry): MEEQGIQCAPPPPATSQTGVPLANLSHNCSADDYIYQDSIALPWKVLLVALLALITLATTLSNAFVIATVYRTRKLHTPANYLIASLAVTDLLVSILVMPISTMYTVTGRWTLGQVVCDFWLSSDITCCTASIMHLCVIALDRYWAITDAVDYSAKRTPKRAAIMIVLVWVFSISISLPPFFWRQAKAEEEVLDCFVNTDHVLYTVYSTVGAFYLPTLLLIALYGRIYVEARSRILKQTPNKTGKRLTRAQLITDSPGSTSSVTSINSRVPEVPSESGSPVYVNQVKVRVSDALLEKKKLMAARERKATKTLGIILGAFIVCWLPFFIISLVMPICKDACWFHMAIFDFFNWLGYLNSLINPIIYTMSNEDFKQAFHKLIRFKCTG
# Experiment: not given
# Format: cell membranes, Wistar, Cerebral cortex, Membrane
# Details: not given
row,SMILES,IC50
1,O=C1CN=C(c2ccccc2)c2cc([N+](=O)[O-])ccc2N1 [NITRAZEPAM],Not Active
2,CCC1(c2ccccc2)C(=O)NCNC1=O [PRIMIDONE],Not Active
3,CC=CC(=O)N(CC)c1ccccc1C,Not Active
